Molecular target: T1, PIP4K2C (Homo sapiens, UniProt Q8TBX8)
T1 sequence (Q8TBX8 1-421): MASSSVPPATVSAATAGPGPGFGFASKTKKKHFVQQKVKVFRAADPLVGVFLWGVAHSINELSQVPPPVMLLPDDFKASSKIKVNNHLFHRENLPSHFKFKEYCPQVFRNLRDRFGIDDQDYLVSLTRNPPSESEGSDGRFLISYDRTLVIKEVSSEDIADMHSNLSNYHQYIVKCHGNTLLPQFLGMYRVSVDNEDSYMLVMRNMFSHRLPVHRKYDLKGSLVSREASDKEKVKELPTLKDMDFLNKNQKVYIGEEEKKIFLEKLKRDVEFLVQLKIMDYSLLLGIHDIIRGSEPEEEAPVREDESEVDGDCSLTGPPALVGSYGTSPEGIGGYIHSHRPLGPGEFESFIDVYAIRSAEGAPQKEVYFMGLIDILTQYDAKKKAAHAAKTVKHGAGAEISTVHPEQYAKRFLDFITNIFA
Assay: HiBiT PIP4K2C degradation assay in MOLT-4 cells (endogenous PIP4K2C C-terminally tagged with HiBiT)
Assay type: cell-based
Design: untagged in primary human PBMCs and monocyte-derived dendritic cells
Settings: 6 hours of incubation time, rather than 24 hours; MOLT-4, top concentration 10 micromolar; read-out: HiBIT-degradation MOLT4 PIP4k2C DC50 (6 hours, marked *)
Procedure, shortened: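 DC50 derived by Hill fit of luminescence from Nano-Glo HiBiT lytic detection. Cells were HiBiT knock-in MOLT-4 (C-terminal tag on endogenous PIP4K2C), exposed 6 h or 24 h at 37 C to compound, top concentration 10 micromolar, 3-fold steps, 10 points, duplicates.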

DC50 | Compound
< 500 nM | O=C1CCC(Nc2ccc(N3CCN(CC4CCN(C(=O)[C@H]5CC[C@H](Nc6ncc(F)c(-c7cccc(N8CCCOC8=O)c7)n6)CC5)CC4)CC3)c(F)c2)C(=O)N1 (stereo partly drawn) [Compound 426, trans-3-[3-fluoro-4-[4-[[1-[4-[[5-fluoro-4-[3-(2-oxo-1,3-oxazinan-3-yl)phenyl]pyrimidin-2-yl]amino]cyclohexanecarbonyl]-4-piperidyl]methyl]piperazin-1-yl]anilino]piperidine-2,6-dione]
< 500 nM | O=C1CCC(Nc2ccc(N3CCC(N4CCN(C(=O)O[C@H]5CC[C@H](Nc6ncc(F)c(-c7cccc(-n8ccccc8=O)c7)n6)CC5)CC4)CC3)c(F)c2)C(=O)N1 (stereo partly drawn) [Compound 698, trans-4-((5-fluoro-4-(3-(2-oxopyridin-1 (2H)-yl)phenyl)pyrimidin-2-yl)amino)cyclohexyl 4-(1-(4-((2,6-dioxopiperidin-3-yl)amino)-2-fluorophenyl)piperidin-4-yl)piperazine-1-carboxylate]
> 5000 nM | O=C1CCC(Nc2ccc(N3CCC(N4CCN(C(=O)O[C@H]5CC[C@H](Nc6ncc(F)c(-c7cccc(-n8ccccc8=O)c7)n6)CC5)CC4)C(F)C3)c(F)c2)C(=O)N1 (stereo partly drawn) [Compound 668, trans-[4-[[5-fluoro-4-[3-(2-oxo-1-pyridyl)phenyl]pyrimidin-2-yl]amino]cyclohexyl]4-[1-[4-[(2,6-dioxo-3-piperidyl)amino]-2-fluoro-phenyl]-3-fluoro-4-piperidyl]piperazine-1-carboxylate]
< 500 nM | O=C1CC[C@@H](Nc2ccc(N3CCN([C@H]4CC[C@H](NC(=O)[C@H]5CC[C@H](Nc6ncc(F)c(-c7cccc(-c8ccc[nH]c8=O)c7)n6)CC5)CC4)CC3)c(F)c2)C(=O)N1 (single isomer, unassigned) [Compound 432]
< 500 nM | O=C1CCC(Nc2ccc(N3CCC(N4CCC(NC(=O)[C@H]5CC[C@H](Nc6ncc(F)c(-c7cccc(N8CCCCC8=O)c7)n6)CC5)CC4)CC3)c(F)c2)C(=O)N1 (stereo partly drawn) [Compound 521, trans-N-(1′-(4-((2,6-dioxopiperidin-3-yl)amino)-2-fluorophenyl)-[1,4′-bipiperidin]-4-yl)-4-((5-fluoro-4-(3-(2-oxopiperidin-1-yl)phenyl)pyrimidin-2-yl)amino)cyclohexane-1-carboxamide]
< 500 nM | O=C1CCC(Nc2ccc(C3CCN([C@H]4CC[C@H](C(=O)N[C@H]5CC[C@H](Nc6ncc(F)c(-c7cccc(N8CCOCC8=O)c7)n6)CC5)CC4)CC3)c(F)c2)C(=O)N1 (stereo partly drawn) [Compound 568, trans-(1r,4R)-4-(4-(4-((2,6-dioxopiperidin-3-yl)amino)-2-fluorophenyl)piperidin-1-yl)-N-((1r,4R)-4-((5-fluoro-4-(3-(3-oxomorpholino)phenyl)pyrimidin-2-yl)amino)cyclohexyl)cyclohexane-1-carboxamide]
< 500 nM | O=C1CCC(Nc2ccc(C3CCN(C[C@H]4CC[C@H](C(=O)N5CCC(Nc6ncc(F)c(-c7cccc(N8CCOCC8)c7)n6)CC5)CC4)CC3)c(F)c2)C(=O)N1 (stereo partly drawn) [Compound 671, trans-3-((3-fluoro-4-(1-((4-(4-((5-fluoro-4-(3-morpholinophenyl)pyrimidin-2-yl)amino)piperidine-1-carbonyl)cyclohexyl)methyl)piperidin-4-yl)phenyl)amino)piperidine-2,6-dione]
< 500 nM | O=C1CCC(Nc2ccc(N3CCC(N4CCC(NC(=O)[C@H]5CC[C@H](Nc6ncc(F)c(-c7cccc(N8CCCCC8)c7)n6)CC5)CC4)C(F)C3)c(F)c2)C(=O)N1 (stereo partly drawn) [Compound 700, trans-N-(1′-(4-((2,6-dioxopiperidin-3-yl)amino)-2-fluorophenyl)-3′-fluoro-[1,4′-bipiperidin]-4-yl)-4-((5-fluoro-4-(3-(piperidin-1-yl)phenyl)pyrimidin-2-yl)amino)cyclohexane-1-carboxamide]

The remaining lines, values behind:

Compound | DC50
O=C1CC[C@@H](Nc2ccc(N3CCC(N4CCC(O)(C(=O)N[C@H]5CC[C@H](Nc6ncc(F)c(-c7cccc(-n8ccccc8=O)c7)n6)CC5)CC4)CC3)c(F)c2)C(=O)N1 (single isomer, unassigned) [Compound 595] | < 500 nM
O=C1CCC(Nc2ccc(C3CCN([C@H]4CC[C@H](NC(=O)[C@H]5CC[C@H](Nc6ncc(F)c(-c7cccc(C8(O)CCC8)n7)n6)CC5)CC4)CC3)c(F)c2)C(=O)N1 (stereo partly drawn) [Compound 479, trans-N-((trans)-4-(4-(4-((2,6-dioxopiperidin-3-yl)amino)-2-fluorophenyl)piperidin-1-yl)cyclohexyl)-4-((5-fluoro-4-(6-(1-hydroxycyclobutyl)pyridin-2-yl)pyrimidin-2-yl)amino)cyclohexane-1-carboxamide] | < 500 nM
O=C1CCC(Nc2ccc(C3CCN([C@H]4CC[C@H](NC(=O)[C@H]5CC[C@H](Nc6ncc(F)c(-c7cccc(-c8ccc[nH]c8=O)c7)n6)CC5)CC4)CC3)c(F)c2)C(=O)N1 (stereo partly drawn) [Compound 402, trans-(1r,4R)—N-((1r,4R)-4-(4-(4-((2,6-dioxopiperidin-3-yl)amino)-2-fluorophenyl)piperidin-1-yl)cyclohexyl)-4-((5-fluoro-4-(3-(2-oxo-1,2-dihydropyridin-3-yl)phenyl)pyrimidin-2-yl)amino)cyclohexane-1-carboxamide] | < 500 nM
O=C1CCC(Nc2ccc(N3CCN([C@H]4CC[C@H](C(=O)N[C@H]5CC[C@H](Nc6ncc(F)c(-c7cccc(N8CCOCC8=O)c7)n6)CC5)CC4)CC3)c(F)c2)C(=O)N1 (stereo partly drawn) [Compound 536, trans-4-(4-(4-((2,6-dioxopiperidin-3-yl)amino)-2-fluorophenyl)piperazin-1-yl)-N-(trans-4-((5-fluoro-4-(3-(3-oxomorpholino)phenyl)pyrimidin-2-yl)amino)cyclohexyl)cyclohexane-1-carboxamide] | < 500 nM

Same assay, conditions: 24 hours incubation, MOLT-4, top concentration 10 micromolar; read-out: HiBIT-degradation MOLT4 PIP4k2C 24 hours DC50

DC50 | Compound
< 500 nM | Cn1nc(C2CCC(=O)NC2=O)c2ccc(C3CCN(CC(=O)N4CCC(O)(C(=O)N5CCC(Nc6ncc(Cl)c(-c7cccc(-c8ccc(F)cc8)c7)n6)CC5)CC4)CC3)cc21 (stereo not drawn) [Compound 290, 3-(6-(1-(2-(4-(4-((5-chloro-4-(4′-fluoro-[1,1′-biphenyl]-3-yl)pyrimidin-2-yl)amino)piperidine-1-carbonyl)-4-hydroxypiperidin-1-yl)-2-oxoethyl)piperidin-4-yl)-1-methyl-1H-indazol-3-yl)piperidine-2,6-dione]
< 500 nM | O=C1CCC(n2c(=O)oc3cc(N4CCC(N5CCC(C(=O)N[C@H]6CC[C@H](Nc7ncc(F)c(-c8cccc(-n9ccccc9=O)c8)n7)CC6)CC5)CC4)ccc32)C(=O)N1 (stereo partly drawn) [Compound 317, trans-1′-(3-(2,6-dioxopiperidin-3-yl)-2-oxo-2,3-dihydrobenzo[d]oxazol-6-yl)-N-(4-((5-fluoro-4-(3-(2-oxopyridin-1(2H)-yl)phenyl)pyrimidin-2-yl)amino)cyclohexyl)-[1,4′-bipiperidine]-4-carboxamide]
< 500 nM | O=C1CCC(N2Cc3cc(OC4CCN(CCN5CCN(C(=O)[C@H]6CCC[C@@H](Nc7ncc(Cl)c(-c8cccc(-c9ccccc9)c8)n7)C6)CC5)CC4)ccc3C2=O)C(=O)N1 (relative stereo) [Compound 80, cis-3-(5-((1-(2-(4-(3-((4-([1,1′-biphenyl]-3-yl)-5-chloropyrimidin-2-yl)amino)cyclohexane-1-carbonyl)piperazin-1-yl)ethyl)piperidin-4-yl)oxy)-1-oxoisoindolin-2-yl)piperidine-2,6-dione]

Second part, the compound before the results:

Compound | DC50
O=C1CCC(n2c(=O)oc3cc(C4CCN(CC5CCN(CC(=O)N6CCC(Nc7ncc(F)c(-c8cccc(N9CCOC9=O)c8)n7)CC6)CC5)CC4)ccc32)C(=O)N1 (stereo not drawn) [Compound 372, 3-(6-(1-((1-(2-(4-((5-fluoro-4-(3-(2-oxooxazolidin-3-yl)phenyl)pyrimidin-2-yl)amino)piperidin-1-yl)-2-oxoethyl)piperidin-4-yl)methyl)piperidin-4-yl)-2-oxobenzo[d]oxazol-3 (2H)-yl)piperidine-2,6-dione] | < 500 nM
O=C1CCC(n2c(=O)oc3cc(N4CCC(CN5CCN(CC(=O)N[C@H]6CC[C@H](Nc7ncc(F)c(-c8cccc(-n9ccccc9=O)c8)n7)CC6)CC5)CC4)ccc32)C(=O)N1 (stereo partly drawn) [Compound 360, 2-(4-((1-(3-(2,6-dioxopiperidin-3-yl)-2-oxo-2,3-dihydrobenzo[d]oxazol-6-yl)piperidin-4-yl)methyl)piperazin-1-yl)-N-(trans-4-((5-fluoro-4-(3-(2-oxopyridin-1(2H)-yl)phenyl)pyrimidin-2-yl)amino)cyclohexyl)acetamide] | < 500 nM

Same assay, conditions: read-out: HiBIT-degradation MOLT4 PIP4k2C DC50 (6 hours, marked *); 6 hours of incubation time, rather than 24 hours; MOLT-4, top concentration 10 micromolar

DC50 | Compound
< 500 nM | O=C1CCC(Nc2ccc(N3CCC(N4CC5(CN(C(=O)O[C@H]6CC[C@H](Nc7ncc(F)c(-c8cccc(-n9ccccc9=O)c8)n7)CC6)C5)C4)CC3)c(F)c2)C(=O)N1 (stereo partly drawn) [Compound 652, (trans)-4-((5-fluoro-4-(3-(2-oxopyridin-1 (2H)-yl)phenyl)pyrimidin-2-yl)amino)cyclohexyl 6-(1-(4-((2,6-dioxopiperidin-3-yl)amino)-2-fluorophenyl)piperidin-4-yl)-2,6-diazaspiro[3.3]heptane-2-carboxylate]

Reference: patent publication US20260355196A1, “INHIBITORS AND DEGRADERS OF PIP4K PROTEIN” (Larkspur Biosciences, Inc., priority 2023, published 2026)
